Reference: US20250034201A1, “PRODRUGS OF GANAXOLONE” (priority 2022, published 2025)
≈ marks a conversion by molar mass, not a printed value. Like-named read-outs stand apart in the source and are kept apart here.

What was measured:
[1] = Stability in simulated gastric fluid (SGF); assay type: in vitro ADME
Description: (§1) The stability of exemplary compounds in simulated gastric fluid (SGF) and simulated intestinal fluid (SIF) was tested according to the following protocol.

in vitro [2] = assay type: in vitro ADME, human
Description: (§2) For several compounds only human liver microsomal stability was tested. […] The microsomal assays were carried out with and without the addition of NADPH at a final concentration of 1 mM. For negative control samples, NADPH reagent was not added. […] Note that compounds undergo only Phase I metabolism in liver microsomes.

[3] = Mouse liver microsomal stability; assay type: in vitro ADME
Description: as §2
(§3) CLint=the intrinsic hepatic clearance (uL/min/mg), where CLint is equal to 0.693/(t1/2×Cmp)
(§4) Certain compounds were also tested in mice and dog liver microsome assays according to the protocol outlined above. […].

[4] = Rat liver microsomal stability; assay type: in vitro ADME
Description: as §2, §3

[5] = Pharmacokinetic study with Compound 111 (IV 5 mg/kg, PO 25 mg/kg); assay type: in vivo; conditions: analyte Compound 111, fasted male beagle dogs, mean; for AUC(0-t): read-out: Compound 111 PK AUClast; for MRT inf: read-out: Compound 111 PK MRTInf; for half-life: read-out: Compound 111 PK t1/2 (converted); for Vd: male, beagle, iv, 5 mg/kg
Description: […]; n=3) and oral (PO) administration (25 mg/kg; n=3) in fasted male beagle dogs.

[6] = Dog liver microsomal stability; assay type: in vitro ADME
Description: as §2, §3, §4

[7] = Measured solubility in buffer, LC-MS/MS; assay type: physicochemical; conditions: aqueous buffer, thermodynamic from solid
Description: […] The mixture was vortexed and a magnetic stirring bar was subsequently added to the vial. The vial was placed on a magnetic stirrer with constant stirring for 16-24 hours at room temperature. The pH of the top layer solution was measured. Subsequently, 200 μL of the top layer solution was placed in a 1.5 mL microcentrifuge tube and centrifuged at 18,000 g for 10 min at room temperature. A 10 μL aliquot of supernatant was added to 990 μL of methanol:water (1/:1, v/v) and vortexed. Then, one volume of acetonitrile containing internal standard was added to one volume of the above 100-fold diluted solution and the resulting solution was vortexed and placed in 96-well plate for LC-MS/MS analysis. […] LC-MS-MS analysis was performed utilizing multiple reaction monitoring for detection of characteristic ions for each test compound, additional related analytes and internal standard.

Dog plasma stability = assay type: in vitro ADME
Description: (§5) For each test compound, samples at a final concentration of 2 μg/mL were prepared in blank plasma of selected species. All samples were incubated at 37° C. on a 150-RPM orbital shaker, and an aliquot was removed at pre-determined time points (0, 15, 30, 60, and 120 minutes). Samples were precipitated with three volumes of acetonitrile containing propranolol as internal standard, and centrifuged for 10 min at 2000 g before LC/MS/MS analysis of the supernatant solutions.

[8] = Stability in simulated intestinal fluid (SIF); assay type: in vitro ADME
Description: as §1

in vitro [9] = test: in vitro
Mouse plasma stability = assay type: in vitro ADME; conditions: 2 μg/mL, 37° C.
Description: as §5

[10] = Pharmacokinetic study with Compound 224 (IV 2 mg/kg, PO 10 mg/kg); conditions: male, beagle, dog, plasma, analyte Compound 224, fasted male beagle dogs, mean
Description: Analysis time points for the IV arm were 0.083, 0.25, 0.5, 1, 2, 4, 8, 12, 24, 36 and 48 hours post dose and analysis time points for the PO arm were 0.25, 0.5, 1, 2, 4, 8, 12, 24, 36 and 48 hours post dose.

[11] = dog, plasma, IV 5 mg/kg Compound 111
[12] = dog, plasma, oral 25 mg/kg Compound 111

CC(=O)[C@H]1CC[C@H]2[C@@H]3CC[C@H]4C[C@](C)(OC(=O)CN)CC[C@]4(C)[C@H]3CC[C@]12C [Compound 111]
SGF (% remain, 60 min) ([1]; SGF with pepsin pH 1.2, 37° C., 60 min): 95%
half-life ([1]; simulated gi fluid, SGF with pepsin pH 1.2, 37° C., 2 μg/mL, read-out: SGF t1/2): 746 min
half-life (in vitro [2]; human liver microsomes 0.5 mg/mL, with NADPH, compound 0.5 μM, 37° C., read-out: Human Liver Microsomal Stability t1/2): 190 min
microsomal CLint (in vitro [2]; human liver microsomes 0.5 mg/mL, with NADPH, compound 0.5 μM, read-out: Human Liver Microsomal Stability CLint (uL/min/mg liver) (converted)): 7.28 µL/min/mg
Human Liver Microsomal Stability no NADPH, % remain 1 h (in vitro [2]; human liver microsomes, no NADPH, compound 0.5 μM): 82.6%
microsomal CLint ([3]; mouse liver microsomes 0.5 mg/mL, compound 0.5 μM, read-out: Mouse Liver Microsomal Stability CLint (uL/min/mg liver)): 11.8 µL/min/mg
half-life ([3]; mouse liver microsomes 0.5 mg/mL, compound 0.5 μM, read-out: Mouse Liver Microsomal Stability t1/2): 118 min
Mouse Liver Microsomal Stability no NADPH, % remain 1 h ([3]; mouse liver microsomes, no NADPH, 1 h): 92.7%
Comments: production of GNX (ganaxolone) in rat liver microsomes ([4]; rat liver microsomes): In rat no GNX produced;
half-life ([4]; rat liver microsomes 0.5 mg/mL, with NADPH, compound 0.5 μM, 37° C., read-out: Rat Liver Microsomal Stability t1/2): 335 min
microsomal CLint ([4]; rat liver microsomes 0.5 mg/mL, with NADPH, compound 0.5 μM, read-out: Rat Liver Microsomal Stability CLint (uL/min/mg liver)): 4.13 µL/min/mg
Rat Liver Microsomal Stability no NADPH, % remain 1 h ([4]; rat liver microsomes, no NADPH, compound 0.5 μM): 99.7%
Compound 111 PK AUCInf/D ([5]; oral 25 mg/kg Compound 111): 68.7 kg·ng·h/mL/mg
AUC(0-inf) ([5]; dog, plasma, IV 5 mg/kg Compound 111, read-out: Compound 111 PK AUCinf): 2790 ng·h/mL
AUC(0-t) [5, 11]: 2740 ng·h/mL
C0 ([5]; dog, plasma, IV 5 mg/kg Compound 111, read-out: Compound 111 PK C0): 1500 ng/mL
clearance ([5]; dog, plasma, IV 5 mg/kg Compound 111, read-out: Compound 111 PK CL): 31.7 mL/min/kg
MRT inf [5, 11]: 3.68 h
half-life [5, 11]: 212 min
AUC(0-inf) ([5]; dog, plasma, oral 25 mg/kg Compound 111, read-out: Compound 111 PK AUCInf): 1720 ng·h/mL
AUC(0-t) [5, 12]: 1570 ng·h/mL
Cmax ([5]; dog, plasma, oral 25 mg/kg Compound 111, read-out: Compound 111 PK Cmax): 177 ng/mL
MRT inf [5, 12]: 10.6 h
Tmax ([5]; dog, plasma, oral 25 mg/kg Compound 111, read-out: Compound 111 PK Tmax): 2.67 h
half-life [5, 12]: 429 min
bioavailability ([5]; dog, plasma, oral 25 mg/kg vs IV 5 mg/kg Compound 111, read-out: Compound 111 PK F (%)): 11.4%
Vd ([5]; dog, plasma, IV 5 mg/kg Compound 111, read-out: Compound 111 PK Vss): 6.71 L/kg
Vd ([5]; dog, plasma, IV 5 mg/kg Compound 111, read-out: Compound 111 PK Vz): 9.47 L/kg
microsomal CLint ([6]; dog liver microsomes 0.5 mg/mL, compound 0.5 μM, read-out: Dog Liver Microsomal Stability CLint (uL/min/mg liver)): 4.95 µL/min/mg
half-life ([6]; dog liver microsomes 0.5 mg/mL, compound 0.5 μM, read-out: Dog Liver Microsomal Stability t1/2): 280 min
Dog Liver Microsomal Stability no NADPH, % remain 1 h ([6]; dog liver microsomes, no NADPH): 92.3%
solubility ([7]; pH 7.4, 50 mM phosphate buffer, 16-24 hours, room temperature, read-out: Solubility pH 7.4): 29.1 µg/mL (≈ 74.7 µM)
solubility ([7]; buffer, pH 2.0, room temperature, read-out: Solubility pH 2.0): 1520 µg/mL (≈ 3900 µM)
Dog plasma t90 (Dog plasma stability; dog plasma, 2 μg/mL, 37° C.): 243 min
half-life (Dog plasma stability; dog plasma, 2 μg/mL, 37° C., read-out: Dog plasma Half life (t1/2)): 1610 min
SIF (% remain, 60 min) ([8]; SIF with pancreatin pH 6.8, 37° C., 60 min): 79.0%
half-life ([8]; simulated gi fluid, SIF with pancreatin pH 6.8, 37° C., 2 μg/mL, read-out: SIF t1/2): 256 min
Human plasma t90 (in vitro [9]; human plasma, 2 μg/mL, 37° C.): 542 min
half-life (in vitro [9]; human, plasma): 3600 min
Rat plasma t90 (in vitro [9]; rat plasma, 2 μg/mL, 37° C.): 132 min
half-life (in vitro [9]; rat, plasma): 876 min
Mouse plasma t90 (Mouse plasma stability): 67.2 min
half-life (Mouse plasma stability; read-out: Mouse plasma Half life (t1/2)): 446 min

CC(=O)[C@H]1CC[C@H]2[C@@H]3CC[C@H]4C[C@](C)(OC(=O)COC(=O)C(C)(C)O)CC[C@]4(C)[C@H]3CC[C@]12C [Compound 224]
SGF (% remain, 60 min) ([1]; simulated gi fluid, 1 h, pH 1.2): 88%
half-life ([1]; simulated gi fluid, pH 1.2): 365 min
half-life (in vitro [2]; human, microsomes): 1.67 min
microsomal CLint (in vitro [2]; human, microsomes): 828 µL/min/mg
Human Liver Microsomal Stability no NADPH, % remain 1 h (in vitro [2]; human, microsomes): 0.4%
Comments: production of GNX (ganaxolone) in rat liver microsomes ([4]; rat liver microsomes): In rat no GNX produced;
half-life ([4]; rat, microsomes): 9.8 min
microsomal CLint ([4]; rat, microsomes): 142 µL/min/mg
Rat Liver Microsomal Stability no NADPH, % remain 1 h ([4]; rat, microsomes): 1.4%
half-life ([6]; dog, microsomes): 7.1 min
microsomal CLint ([6]; dog, microsomes): 196 µL/min/mg
Dog Liver Microsomal Stability no NADPH, % remain 1 h ([6]; dog, microsomes): 0.6%
Vd ([10]; Compound 224 PK Vss (L/kg)): 5.92 L/kg
Vd ([10]; Compound 224 PK Vz (L/kg)): 16.1 L/kg
Dog plasma t90 (Dog plasma stability; dog): 126 min
half-life (Dog plasma stability; dog plasma): 838 min
SIF (% remain, 60 min) ([8]; simulated gi fluid, 1 h, pH 6.8): 60%
half-life ([8]; simulated gi fluid, pH 6.8): 98 min
Human plasma t90 (in vitro [9]; human): 6.5 min
half-life (in vitro [9]; human, plasma): 43 min
Rat plasma t90 (in vitro [9]; rat): 2.16 min
Observations: stability / GNX production in rat plasma (in vitro [9]; rat, plasma): GNX produced in rat
half-life (in vitro [9]; rat, plasma): 14.4 min
